Experiment [1] concerns rat 5/6 kidney-removed model. In words: in vivo drug efficacy on renal damage in rat 5/6 kidney-removed model. Details: species or system Jcl: Wistar (Wistar) rats. To be noted: after 8 weeks from the start of administration. An excerpt:
The obtained urine sample was centrifuged, and the supernatant was subjected to measurement.

Experiment [2] has as its system Alport syndrome model mice. In words: in vivo drug efficacy in Alport syndrome model mice. The note with it: 16 weeks after the start of administration. Details: species or system COL4A5 homozygote knockout mice. On the procedure:
The in vivo drug efficacy of the present compound on Alport syndrome was evaluated using COL4A5 (causative gene of Alport syndrome) knockout mice.
Male wild-type mice and female COL4A5 hetero knockout mice were naturally crossed to obtain offspring. Genotypes of the offspring were confirmed and male COL4A5 homozygote knockout mice were obtained.
The obtained animals were fed ad libitum with CE-2 (CLEA Japan), and watered ad libitum.
The mice were divided into groups using a statistical analysis system EXSUS10.0 so that the body weight and the urine albumin/urine creatinine value at the time of 6 weeks of age were almost uniform in each group.
The test substance and water for injection (Otsuka Pharmaceutical) as a vehicle were orally administered at 10 mL/kg once a day for 17 weeks.
The Control-3 group was orally administered water for injection at 10 mL/kg once a day for 17 weeks. In the Control-4 group, water for injection and an administration solution of irbesartan which is a renin angiotensin system inhibitor were mixed in equal amounts at 5 mL/kg each, and orally administered once a day for 17 weeks.
The administration dose is described in Table 11.
Blood collection was performed by cutting the tail vein of the mice a little with a razor and using a hematocrit capillary. Blood was centrifuged to obtain plasma. Urine was collected for about 16 hours in a metabolic cage for mouse under conditions in which a solid feed and water can be freely taken. The obtained urine sample was centrifuged, and the supernatant was subjected to measurement. Urine albumin (U-ALB) and urine creatinine (U-CRE) concentrations were measured by an automatic analyzer Hitachi 7180 (Hitachi High-Tech), and the creatinine concentration in plasma was measured using LabAssay Creatinine (Fujifilm Wako Shibayagi).

The test system of experiment [3] is diabetic renal disease model rat. Description: in vivo drug efficacy in diabetic renal disease model rat (single kidney removal, saline). Also noted: species or system SDT.Cg-Leprfa/JttJcl (SDT-fatty rat). The note with it: 8 weeks after the start of administration. The procedure:
A diabetic renal disease model was created by extracting the unilateral kidneys of male SDT.Cg-Leprfa/JttJcl (SDT-fatty/Jcl, CLEA Japan) rats, a type 2 diabetes model, and then giving saline. The in vivo drug efficacy of the present compound on diabetic renal disease was evaluated in this model.
Male SDT.Cg-Leprfa/JttJcl (SDT-fatty rat) aged 4 weeks was purchased from CLEA Japan, and subjected to experiments. The animals were fed ad libitum with Purina5008 (Japan SLC) from the time of arrival, and watered ad libitum. Water was given from the arrival and until 1 week from single kidney removal, and a 0.2 w/v% NaCl solution was given 1 week after single kidney removal.
After acclimation breeding, the body weight was measured, and buprenorphine was subcutaneously administered at a dose of 0.01 mg/kg under inhalation anesthesia with isoflurane (Mayran). After removing hair from the right abdomen of the rat, the right abdomen was disinfected with ethanol and isodine for disinfection and incised to expose the right kidney. The renal artery and vein was ligated with a suture to stop the blood flow, the right kidney was totally removed, and the incision was sutured. The following day, analgesic buprenorphine was administered subcutaneously at a dose of 0.01 mg/kg.
Grouping was performed 3 weeks after single kidney removal. The mice were divided into groups so that the average of the above parameters was almost equal between the groups on the basis of body weight, serum urea nitrogen (BUN), serum creatinine (S-CRE), serum total cholesterol (T-CHO), blood glucose level (GLU), neutral fat (TG), urinary protein (U-TP), urinary albumin (U-ALB), and creatinine clearance (CCr).
All of the compounds of Examples 25-7, 10, 11 and 12 were orally administered once a day for 8 weeks in combination with losartan (30 mg/kg), a renin angiotensin system inhibitor, and canagliflozin (10 mg/kg), a glucose co-transporter inhibitor. The compounds of Examples 25-7, 10, 11 and 12, and losartan were each dissolved in water for injection (Otsuka Pharmaceutical), and canagliflozin was suspended in a 0.5% methyl cellulose solution (Fujifilm Wako Pure Chemical Corporation) to prepare an administration solution. In the Control-1 group, water for injection which is a vehicle of losartan or the compound of Examples 25-7, 10, 11 or 12 was orally administered at 5 mL/kg, and a 0.5% methylcellulose solution which is a vehicle of canagliflozin was orally administered at 2.5 mL/kg once a day for 8 weeks. In the Control-2 group, losartan (30 mg/kg) dissolved in water for injection was orally administered at an administration volume of 2.5 mL/kg, canagliflozin (10 mg/kg) suspended in a 0.5% methyl cellulose solution was orally administered at an administration volume of 2.5 mL/kg, and water for injection which is a vehicle of the compounds of Examples 25-7, 10, 11 and 12 was orally administered at an administration volume of 2.5 mL/kg once a day for 8 weeks. The administration dose is described in Table 8.
Blood was collected by puncturing the tail vein of the rat with an injection needle. Blood was collected in a tube for serum separation (BD Microtainer) and centrifuged to obtain serum. Urine was collected for 24 hours in a metabolic cage for rat under conditions in which a solid feed and water can be freely taken. The obtained urine sample was centrifuged, and the supernatant was subjected to measurement. The concentrations of BUN, S-CRE, T-CHO, TG, U-ALB, U-TP, GLU and U-CRE were measured by an automatic analyzer Hitachi 7180 (Hitachi High-Tech).

As to `Cc1c(C(=O)O)ccc2c1O[C@H]1C[C@@H](O)[C@H](/C=C/C[C@@](C)(O)CCCC(F)(F)F)[C@H]1CC2` [Example 12, (1R,2R,3aS,10aR)-2-hydroxy-5-methyl-1-[(1E,4S)-8,8,8-trifluoro-4-hydroxy-4-methyl-1-octen-1-yl]-2,3,3a,9,10,10a-hexahydro-1H-benzo[b]cyclopenta[f]oxepine-6-carboxylic acid], the “Amount of albumin excreted in urine mean” value came to 66.09 mg/24 h in experiment [1] (0.01 mg/kg orally once a day for 8 weeks) and 44.16 mg/24 h in experiment [1] (0.03 mg/kg orally once a day for 8 weeks). The Plasma creatinine mean in experiment [2] (1 mg/kg orally once a day for 17 weeks, concomitant drug Irbesartan (50 mg/kg)) stood at 0.709 mg/dL; in experiment [2] (3 mg/kg orally once a day for 17 weeks, concomitant drug cell empty), 0.722 mg/dL. For the same compound, the Serum creatinine mean was 0.51 mg/dL in experiment [3] (0.01 mg/kg orally once a day for 8 weeks in combination with losartan (30 mg/kg) and canagliflozin (10 mg/kg)); 0.45 mg/dL in experiment [3] (0.03 mg/kg orally once a day for 8 weeks in combination with losartan (30 mg/kg) and canagliflozin (10 mg/kg)).
In the case of `CC(C)(c1ccccc1)C(O)/C=C/[C@H]1CC[C@@H]2Oc3c(ccc(C(=O)O)c3F)CC[C@@H]21` (stereo partly drawn) [Example 25-7, (1R,3aS,10aR)-5-fluoro-1-[(1E,3ξ)-3-hydroxy-4-methyl-4-phenyl-1-penten-1-yl]-2,3,3a,9,10,10a-hexahydro-1H-benzo[b]cyclopenta[f]oxepine-6-carboxylic acid], the Plasma creatinine mean in experiment [2] (0.1 mg/kg orally once a day for 17 weeks, single agent) is given as 0.758 mg/dL; in experiment [2] (0.3 mg/kg orally once a day for 17 weeks, single agent), 0.628 mg/dL. In addition, the Serum creatinine mean in experiment [3] (0.1 mg/kg orally once a day for 8 weeks in combination with losartan (30 mg/kg) and canagliflozin (10 mg/kg)) amounted to 0.45 mg/dL.
